This is an account of results in BindingDB's records for doi:10.3109/14756360903179401 (Universidad Nacional Autonoma De Mexico, 2010).

The target of this assay is T1, cDNA, FLJ78895, highly similar to 3-oxo-5-alpha-steroid 4-dehydrogenase 1 (Homo sapiens, UniProt B7Z4L2).
T1 sequence (B7Z4L2 whole entry): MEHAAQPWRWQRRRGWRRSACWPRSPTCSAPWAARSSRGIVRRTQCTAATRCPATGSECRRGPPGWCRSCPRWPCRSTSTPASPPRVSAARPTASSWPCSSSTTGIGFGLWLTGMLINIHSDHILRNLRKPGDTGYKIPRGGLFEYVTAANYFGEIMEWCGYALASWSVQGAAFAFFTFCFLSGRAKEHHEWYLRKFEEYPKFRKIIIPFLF
Nature of the assay: 5α-Reductase Activity Assay. Particulars: pH 6.5; 37 °C. The method, then: The reaction mixture contained a final volume of 1 mL: 1 mM dithiothreitol, sodium phosphate buffer 40 mM, at pH 6.5 for human prostate, 2 mM NADPH, 2 nM [1,2,6,7-3H]T [Cabeza et al., Steroids 60:630-5]. The reaction in duplicate was started when it was added to the enzymatic fraction (500 μg protein in a volume of 80 μL) incubated at 37°C for 60 min [Hirosumi et al., J. Steroid Biochem. Mol. Biol., 52:357-63] and stopped by mixing with 1 mL of dichloromethane; this was considered as the end point. Incubation without tissue was used as a control. The mixture (incubation medium/dichloromethane) was agitated on a vortex for 1 min and the dichloromethane phase was separated and placed in another tube. This procedure was repeated four more times. The dichloromethane extract was evaporated to dryness under a nitrogen stream and suspended in […] that was spotted on high-performance thin layer chromatography (HPTLC) Keiselgel 60 F254 plates. T and DHT were used as carriers, and were applied in different lanes on both lateral sides of the plates (T, T + DHT, and DHT). The plates were developed in chloroform-acetone, 9:1, and were air-dried; the chromatography was repeated twice more. The steroid carriers were detected using phosphomolybdic acid reagent (DHT) and with an ultraviolet (UV) lamp (254 nm) (T). After the plates were segmented into pieces of 1 cm each, these were cut off and the strips soaked in 5 mL of Ultima Gold (Packard). The radioactivity was determined in a scintillation counter (Packard Tri-Carb 2100 TR). The radioactivity content in the segment corresponding to T and DHT carriers was identified. Radioactivity with identical chromatographic behavior to the DHT standard was considered as the DHT transformation.
Regarding `CC(=O)O[C@]1(C(C)=O)CCC2C3C(CC[C@@]21C)[C@@]1(C)CCC(=O)C=C1[C@H]1O[C@@H]31` (stereo partly drawn) [3,20-Dioxo-6,7-epoxypregn-4-ene-7α-yl acetate (8)], the IC50 (commonly the midpoint of a concentration-inhibition curve) was determined as 22 nM.

In the case of `CC(C)(C)NC(=O)C1CCC2C3CCC4NC(=O)C=C[C@]4(C)C3CC[C@]12C` (stereo not given in full) [Finasteride (3)], half-maximal inhibition (IC50) was put at 8.5 nM. The molecule `CC(=O)O[C@]1(C(C)=O)CCC2C3CCC4=CC(=O)CC[C@]4(C)C3CC[C@@]21C` (stereo partly drawn) [17α-Acetoxyprogesterone (6)] returned an IC50 of 10 nM.

Consider `CC(=O)O[C@]1(C(C)=O)CCC2C3C=C(Cl)C4=CC(=O)CC[C@]4(C)C3CC[C@@]21C` (stereo partly drawn) [6-Chloro-3,20-dioxopregna-4,6-diene-17α-yl acetate (9)], for which half-maximal inhibition (IC50) was put at 19 nM.

In turn, `CC(=O)O[C@]1(C(C)=O)CCC2C3C=CC4=CC(=O)CC[C@]4(C)C3CC[C@@]21C` (stereo partly drawn) [3,20-Dioxopregna-4,6-dien-17α-yl acetate (7)] registered an IC50 of 70 nM.
